In patent publication US11566007B2, “Ras inhibitors” (Revolution Medicines, Inc., priority 2019, dated 2023):
Where two headings read alike, the source gives them in different places.

Assays:
NRAS G12C = NRAS G12C (Homo sapiens (Human), UniProt P01111+P62937, G12C); experiment: Ras-Raf (BRAF RBD) disruption / FRET / MOA assay, NRAS G12C; format: biochemical
How it was run: (§1)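 A 10-point, 3-fold dilution series topping at 30 μM final was incubated 3 h at 25° C with the Ras/cyclophilin A/BRAF RBD mixture.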

KRAS WT = KRAS WT (Homo sapiens (Human), UniProt P01116+P62937); experiment: Ras-Raf (BRAF RBD) disruption / FRET / MOA assay, KRAS WT; format: biochemical; details: read-out: IC50* KRAS WT FRET data
How it was run: as §1

[1] = system: NCI-H358 cells (K-Ras G12C); experiment: Potency assay: pERK in NCI-H358 cells; format: cell-based, human; details: Homo sapiens, NCI-H358; H358 KRAS G12C; read-out: pERK EC50
How it was run: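 pERK decrease read by AlphaLISA SureFire p-ERK1/2 or In-Cell Western after 4 h compound exposure at 37 °C, 5% CO2.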

K-Ras G12C = K-Ras G12C (Homo sapiens (Human), UniProt P01116+P62937, G12C); experiment: Ras-Raf (BRAF RBD) disruption / FRET / MOA assay, KRAS G12C; format: biochemical; details: KRAS G12C; Ras-Raf disruption/FRET/MOA assay; read-out: IC50* KRAS G12C FRET data
How it was run: as §1

K-Ras G13C = K-Ras G13C (Homo sapiens (Human), UniProt P01116+P62937, G13C); experiment: Ras-Raf (BRAF RBD) disruption / FRET / MOA assay, KRAS G13C; format: biochemical; details: KRAS G13C; Ras-Raf disruption/FRET/MOA assay; read-out: IC50* KRAS G13C FRET data
How it was run: as §1

KRAS G12D = KRAS G12D (Homo sapiens (Human), UniProt P01116+P62937, G12D); experiment: Ras-Raf (BRAF RBD) disruption / FRET / MOA assay, KRAS G12D; format: biochemical; details: Ras-Raf disruption/FRET/MOA assay; class symbols; read-out: KRAS G12D FRET data IC50
How it was run: as §1

NRAS WT = NRAS WT (Homo sapiens (Human), UniProt P01111+P62937); experiment: Ras-Raf (BRAF RBD) disruption / FRET / MOA assay, NRAS WT; format: biochemical; details: read-out: IC50* NRAS WT FRET data
How it was run: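 Compounds (30 μM top final, 10-point 3-fold dilutions) incubated 3 h at 25° C with nucleotide-loaded Ras, cyclophilin A and BRAF RBD. Detection with 10 nM anti-His Eu-W1024 and 50 nM anti-GST allophycocyanin over another 1.5 h. Lowered TR-FRET ratio relative to DMSO wells gives IC50.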

[2] = read-out: IC50* NRAS G12C FRET data

NRAS G12C, sequence (P01111 whole entry G12C): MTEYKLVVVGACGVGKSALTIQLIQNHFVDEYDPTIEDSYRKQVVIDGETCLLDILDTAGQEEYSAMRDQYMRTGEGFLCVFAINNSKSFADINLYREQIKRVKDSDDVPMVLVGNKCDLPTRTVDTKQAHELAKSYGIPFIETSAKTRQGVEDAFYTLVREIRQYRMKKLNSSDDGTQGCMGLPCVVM
NRAS G12C, sequence (P62937 whole entry): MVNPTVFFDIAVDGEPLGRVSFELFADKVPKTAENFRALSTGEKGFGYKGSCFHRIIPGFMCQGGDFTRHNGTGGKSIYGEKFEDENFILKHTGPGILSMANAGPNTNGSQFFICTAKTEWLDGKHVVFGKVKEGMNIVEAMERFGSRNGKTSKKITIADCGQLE
KRAS G12D, sequence (P01116-2 other isoform, or with tags, fused parts or gaps G12D): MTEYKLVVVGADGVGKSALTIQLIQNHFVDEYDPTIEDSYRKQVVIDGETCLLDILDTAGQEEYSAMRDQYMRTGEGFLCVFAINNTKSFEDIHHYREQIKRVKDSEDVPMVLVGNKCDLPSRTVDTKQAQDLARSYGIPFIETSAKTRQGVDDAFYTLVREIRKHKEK
KRAS G12D, sequence (P62937 whole entry): as the sequence (P62937 whole entry) above
K-Ras G12C, sequence (P01116-2 other isoform, or with tags, fused parts or gaps G12C): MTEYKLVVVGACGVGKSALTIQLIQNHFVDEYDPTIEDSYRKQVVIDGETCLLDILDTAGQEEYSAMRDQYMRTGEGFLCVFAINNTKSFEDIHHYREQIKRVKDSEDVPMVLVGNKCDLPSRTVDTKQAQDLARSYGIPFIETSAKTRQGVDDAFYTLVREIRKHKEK
K-Ras G12C, sequence (P62937 whole entry): as the sequence (P62937 whole entry) above
KRAS WT, sequence (P01116-2 other isoform, or with tags, fused parts or gaps): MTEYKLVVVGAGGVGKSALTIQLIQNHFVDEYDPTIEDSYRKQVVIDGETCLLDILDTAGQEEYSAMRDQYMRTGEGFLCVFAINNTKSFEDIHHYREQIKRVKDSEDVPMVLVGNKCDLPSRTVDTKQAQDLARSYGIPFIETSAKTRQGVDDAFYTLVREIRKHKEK
KRAS WT, sequence (P62937 whole entry): as the sequence (P62937 whole entry) above
NRAS WT, sequence (P01111 whole entry): as the sequence (P01111 whole entry G12C) above, with C12G counted along it
NRAS WT, sequence (P62937 whole entry): as the sequence (P62937 whole entry) above
K-Ras G13C, sequence (P01116-2 other isoform, or with tags, fused parts or gaps G13C): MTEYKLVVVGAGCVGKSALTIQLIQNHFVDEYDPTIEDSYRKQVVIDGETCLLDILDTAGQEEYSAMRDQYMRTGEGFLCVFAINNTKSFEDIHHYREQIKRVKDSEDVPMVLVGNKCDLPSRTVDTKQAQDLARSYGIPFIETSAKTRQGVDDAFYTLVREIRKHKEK
K-Ras G13C, sequence (P62937 whole entry): as the sequence (P62937 whole entry) above

| SMILES | IC50 (NRAS G12C; [2]) | IC50 (KRAS WT) | EC50 [1] | IC50 (K-Ras G12C) | IC50 (K-Ras G13C) | IC50 (KRAS G12D) | IC50 (NRAS WT) | IC50 (NRAS G12C; IC50* NRAS G12C FRET data) |
| --- | --- | --- | --- | --- | --- | --- | --- | --- |
| CCn1c(-c2cccnc2[C@H](C)OC)c2c3cc(ccc31)-c1cc(CF)cc(c1)C[C@H](NC(=O)[C@@H](COC1CN(C(=O)C#CC(C)(C)N(C)C)C1)C(C)C)C(=O)N1CCC[C@H](N1)C(=O)OCC(C)(C)C2 (atropisomer, axis not shown) [Example A587] | 0.01 to 0.1 µM | > 10 µM | < 5 µM | 0.01 to 0.1 µM | > 10 µM | > 10 µM | > 10 µM | – |
| CO[C@@H](C)c1ncccc1-c1c2c3cc(ccc3n1CC(F)(F)F)-c1cc(CF)cc(c1)C[C@H](NC(=O)[C@@H](COC1CN(C(=O)C#CC(C)(C)N(C)C)C1)C(C)C)C(=O)N1CCC[C@H](N1)C(=O)OCC(C)(C)C2 (atropisomer, axis not shown) [Example A589] | 0.01 to 0.1 µM | 1 to 10 µM | < 5 µM | 0.01 to 0.1 µM | 1 to 10 µM | > 10 µM | 1 to 10 µM | – |
| CO[C@@H](C)c1ncccc1-c1c2c3cc(ccc3n1CC(F)(F)F)-c1nc(ns1)C[C@H](NC(=O)[C@@H](COC1CN(C(=O)C#CC(C)(C)N(C)C)C1)C(C)C)C(=O)N1CCC[C@H](N1)C(=O)OCC(C)(C)C2 (atropisomer, axis not shown) [Example A590, (2R)-2-(((1-(4-(dimethylamino)-4-methylpent-2-ynoyl)azetidin-3-yl)oxy)methyl)-N-((6^3S,4S,Z)-1^2-(2-((S)-1-methoxyethyl)pyridin-3-yl)-10,10-dimethyl-5,7-dioxo-1^1-(2,2,2-trifluoroethyl)-6^1,6^2,6^3,6^4,6^5,6^6-hexahydro-1^1H-8-oxa-2(5,3)-thiadiazola-1(5,3)-indola-6(1,3)-pyridazinacycloundecaphane-4-yl)-3-methylbutanamide] | 0.01 to 0.1 µM | 1 to 10 µM | < 5 µM | 0.01 to 0.1 µM | 1 to 10 µM | > 10 µM | 1 to 10 µM | – |
| C=CC(=O)N1CCO[C@@]2(CCN(C(=O)N(C)[C@H](C(=O)N[C@H]3Cc4nc(cs4)-c4ccc5c(c4)c(c(-c4cccnc4[C@H](C)OC)n5CC(F)(F)F)CC(C)(C)COC(=O)[C@@H]4CCCN(N4)C3=O)C(C)C)C2)C1 (atropisomer, axis not shown) [Example A594] | – | 0.01 to 0.1 µM | < 5 µM | 0.01 to 0.1 µM | 0.01 to 0.1 µM | 0.1 to 1 µM | 0.01 to 0.1 µM | 0.01 to 0.1 µM |
| C=CC(=O)N1CCO[C@H]2CN(C(=O)N(C)[C@H](C(=O)N[C@H]3Cc4cccc(n4)-c4ccc5c(c4)c(c(-c4cccnc4[C@H](C)OC)n5CC(F)(F)F)CC(C)(C)COC(=O)[C@@H]4CCCN(N4)C3=O)C(C)C)C[C@H]21 (atropisomer, axis not shown) [Example A595] | 0.01 to 0.1 µM | 0.1 to 1 µM | < 5 µM | 0.01 to 0.1 µM | 0.01 to 0.1 µM | 1 to 10 µM | 0.1 to 1 µM | – |
| C=CC(=O)N1CCO[C@H]2CN(C(=O)N(C)[C@H](C(=O)N[C@H]3Cc4cccc(n4)-c4ccc5c(c4)c(c(-c4cccnc4[C@H](C)OC)n5CC)CC(C)(C)COC(=O)[C@@H]4CCCN(N4)C3=O)C(C)C)C[C@H]21 (atropisomer, axis not shown) [Example A597] | 0.01 to 0.1 µM | 1 to 10 µM | < 5 µM | 0.01 to 0.1 µM | 0.01 to 0.1 µM | > 10 µM | 1 to 10 µM | – |
| C=CC(=O)N1CCO[C@H]2CN(C(=O)N(C)[C@H](C(=O)N[C@H]3Cc4cccc(c4)-c4ccc5c(c4)c(c(-c4cccnc4[C@H](C)OC)n5CC)CC(C)(C)COC(=O)[C@@H]4CCCN(N4)C3=O)C(C)C)C[C@H]21 (atropisomer, axis not shown) [Example A610] | 0.01 to 0.1 µM | 0.1 to 1 µM | < 5 µM | 0.01 to 0.1 µM | 0.01 to 0.1 µM | 1 to 10 µM | 0.1 to 1 µM | – |
| C=CC(=O)N1CC2(CCN2C(=O)N(C)[C@H](C(=O)N[C@H]2Cc3nc(n(C)n3)-c3ccc4c(c3)c(c(-c3cccnc3[C@H](C)OC)n4CC)CC(C)(C)COC(=O)[C@@H]3CCCN(N3)C2=O)C(C)C)C1 (atropisomer, axis not shown) [Example A612] | < 0.01 µM | 0.1 to 1 µM | < 5 µM | 0.01 to 0.1 µM | 0.1 to 1 µM | 0.1 to 1 µM | 0.01 to 0.1 µM | – |
| CCn1c(-c2cccnc2[C@H](C)OC)c2c3cc(ccc31)N1CCC[C@@H](C[C@H](NC(=O)[C@H](C(C)C)N(C)C(=O)C3(F)CCN(C(=O)C#CC(C)(C)N(C)C)CC3)C(=O)N3CCC[C@H](N3)C(=O)OCC(C)(C)C2)C1 (atropisomer, axis not shown) [Example A615] | 0.01 to 0.1 µM | > 10 µM | < 5 µM | 0.01 to 0.1 µM | > 10 µM | > 10 µM | > 10 µM | – |
| C=CC(=O)N(C)CCC1CCN(C(=O)N(C)[C@H](C(=O)N[C@H]2Cc3nc(cs3)-c3ccc4c(c3)c(c(-c3cccnc3[C@H](C)OC)n4CC)CC(C)(C)COC(=O)[C@@H]3CCCN(N3)C2=O)C(C)C)CC1 (atropisomer, axis not shown) [Example A621] | 0.01 to 0.1 µM | 0.01 to 0.1 µM | < 5 µM | 0.01 to 0.1 µM | 0.01 to 0.1 µM | 0.1 to 1 µM | 0.01 to 0.1 µM | – |
| CCn1c(-c2cccnc2[C@H](C)OC)c2c3cc(ccc31)-c1csc(n1)C[C@H](NC(=O)[C@H](C(C)C)N(C)C(=O)N1C[C@H]3CN(C(=O)C#CC(C)(C)N(C)C)CC[C@H]31)C(=O)N1CCC[C@H](N1)C(=O)OCC(C)(C)C2 (atropisomer, axis not shown) [Example A624] | 0.01 to 0.1 µM | 0.1 to 1 µM | < 5 µM | 0.01 to 0.1 µM | 0.1 to 1 µM | 1 to 10 µM | 0.1 to 1 µM | – |
| CCn1c(-c2cccnc2[C@H](C)OC)c2c3cc(ccc31)-c1csc(n1)C[C@H](NC(=O)[C@H](F)COC1CN(C(=O)C#CC(C)(C)N(C)C)C1)C(=O)N1CCC[C@H](N1)C(=O)OCC(C)(C)C2 (atropisomer, axis not shown) [Example A627] | < 0.01 µM | > 10 µM | < 5 µM | < 0.01 µM | > 10 µM | > 10 µM | > 10 µM | – |
| C=C(C)C(=O)N1CC2(CCN(C(=O)N(C)[C@H](C(=O)N[C@H]3Cc4nc(cs4)-c4ccc5c(c4)c(c(-c4cccnc4[C@H](C)OC)n5CC)CC(C)(C)COC(=O)[C@@H]4CCCN(N4)C3=O)C(C)C)CC2)C1 (atropisomer, axis not shown) [Example A651] | 0.01 to 0.1 µM | 0.1 to 1 µM | < 5 µM | 0.01 to 0.1 µM | 0.1 to 1 µM | 0.1 to 1 µM | 0.1 to 1 µM | – |
| C=CC(=O)N(C)C[C@H]1CCN(C(=O)N(C)[C@H](C(=O)N[C@H]2Cc3nc(cs3)-c3ccc4c(c3)c(c(-c3cccnc3[C@H](C)OC)n4CC)CC(C)(C)COC(=O)[C@@H]3CCCN(N3)C2=O)C(C)C)C1 (atropisomer, axis not shown) [Example A653] | 0.01 to 0.1 µM | 0.1 to 1 µM | < 5 µM | 0.01 to 0.1 µM | 0.1 to 1 µM | 0.1 to 1 µM | 0.1 to 1 µM | – |
| C=CC(=O)N(C)C[C@@H]1CCN(C(=O)N(C)[C@H](C(=O)N[C@H]2Cc3nc(cs3)-c3ccc4c(c3)c(c(-c3cccnc3[C@H](C)OC)n4CC)CC(C)(C)COC(=O)[C@@H]3CCCN(N3)C2=O)C(C)C)C1 (atropisomer, axis not shown) [Example A654] | 0.01 to 0.1 µM | 0.1 to 1 µM | < 5 µM | 0.1 to 1 µM | 0.1 to 1 µM | 0.1 to 1 µM | 0.1 to 1 µM | – |
| CCn1c(-c2cccnc2[C@H](C)OC)c2c3cc(ccc31)-c1cccc(c1)C[C@H](NC(=O)[C@@H](COC1CN(C(=O)C#CC(C)(C)N(C)CCO)C1)C(C)C)C(=O)N1CCC[C@H](N1)C(=O)OCC(C)(C)C2 (atropisomer, axis not shown) [Example A657] | 0.01 to 0.1 µM | > 10 µM | < 5 µM | 0.01 to 0.1 µM | 1 to 10 µM | > 10 µM | > 10 µM | – |
| CCn1c(-c2cccnc2[C@H](C)OC)c2c3cc(ccc31)-c1csc(n1)C[C@H](NC(=O)[C@@H](COC1CN(C(=O)C#CC(C)(C)N(C)C)C1)OC)C(=O)N1CCC[C@H](N1)C(=O)OCC(C)(C)C2 (atropisomer, axis not shown) [Example A660] | < 0.01 µM | 0.1 to 1 µM | < 5 µM | < 0.01 µM | 0.1 to 1 µM | 1 to 10 µM | 0.1 to 1 µM | – |
